This is an account of results in PMC6130205 (Journal of medicinal chemistry, 2018).

Holding throughout (type): biochemical
Assay [1] concerns the target T1, SIRT1 (Homo sapiens, UniProt Q96EB6).
T1 sequence (Q96EB6 2-747): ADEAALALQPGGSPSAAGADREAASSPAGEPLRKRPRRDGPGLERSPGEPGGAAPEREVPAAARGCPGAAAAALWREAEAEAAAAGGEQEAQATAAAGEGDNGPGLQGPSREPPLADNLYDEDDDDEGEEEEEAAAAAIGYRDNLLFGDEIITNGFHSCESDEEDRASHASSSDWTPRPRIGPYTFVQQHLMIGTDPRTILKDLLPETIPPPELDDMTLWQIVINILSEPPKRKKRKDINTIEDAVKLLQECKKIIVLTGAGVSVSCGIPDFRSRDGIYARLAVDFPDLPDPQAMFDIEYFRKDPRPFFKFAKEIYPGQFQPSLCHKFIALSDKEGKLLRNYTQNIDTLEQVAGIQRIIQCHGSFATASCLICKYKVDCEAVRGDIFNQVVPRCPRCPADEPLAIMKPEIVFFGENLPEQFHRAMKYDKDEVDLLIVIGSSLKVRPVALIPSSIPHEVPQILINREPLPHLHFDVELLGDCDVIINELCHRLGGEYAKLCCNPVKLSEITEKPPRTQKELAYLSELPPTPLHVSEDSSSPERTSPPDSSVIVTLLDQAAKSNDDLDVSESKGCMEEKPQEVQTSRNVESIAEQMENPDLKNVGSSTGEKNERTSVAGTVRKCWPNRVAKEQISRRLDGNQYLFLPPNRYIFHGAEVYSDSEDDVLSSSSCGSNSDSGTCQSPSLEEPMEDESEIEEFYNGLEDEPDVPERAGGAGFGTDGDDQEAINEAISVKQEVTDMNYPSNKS
The experiment in a line: fluorometric substrate cleavage.

Assay [2] deals with T1, SIRT1. The experiment in a line: fluorometric substrate cleavage kinetics.
In assay [3] the target is T1, SIRT1. The experiment in a line: in vitro SIRT1 reaction monitored by […] NMR.

`Cc1cc(=O)oc2cc(NC(=O)[C@H](CCCCNC(=O)c3ccccc3)NC(=O)OCc3ccccc3)ccc12` [compound 1, Benzyl (6-Benzamido-1-((4-methyl-2-oxo-2H-chromen-7-yl)-amino)-1-oxohexan-2-yl)carbamate]: the “fluorometric substrate cleavage (Kcat)” value in assay [1] is recorded as “(0.41 ± 0.014) × 10^−3 s^−1”. `Cc1cc(=O)oc2cc(NC(=O)[C@H](CCCCNC(=O)c3ccccc3F)NC(=O)OCc3ccccc3)ccc12` [compound 2, Benzyl (6-(2-Fluorobenzamido)-1-((4-methyl-2-oxo-2H-chromen-7-yl)amino)-1-oxohexan-2-yl)carbamate]: the “fluorometric substrate cleavage kinetics (Kcat/Km)” value in assay [2] turned out to be 26.02 ± 7.07 M⁻¹ s⁻¹. Take `Cc1cc(=O)oc2cc(NC(=O)[C@H](CCCCNC(=O)c3cccc(F)c3)NC(=O)OCc3ccccc3)ccc12` [compound 3, Benzyl (6-(3-Fluorobenzamido)-1-((4-methyl-2-oxo-2H-chromen-7-yl)amino)-1-oxohexan-2-yl)carbamate]: the “fluorometric substrate cleavage kinetics (Kcat/Km)” value in assay [2] was determined as 63.39 ± 4.32 M⁻¹ s⁻¹. Same read-out and setting: the same measure for `Cc1cc(=O)oc2cc(NC(=O)[C@H](CCCCNC(=O)c3ccc(F)cc3)NC(=O)OCc3ccccc3)ccc12` [compound 4, Benzyl (6-(4-Fluorobenzamido)-1-((4-methyl-2-oxo-2H-chromen-7-yl)amino)-1-oxohexan-2-yl)carbamate]: 16.08 ± 1.32 M⁻¹ s⁻¹. Consider `CCc1ccc(C(=O)NCCCC[C@H](NC(=O)OCc2ccccc2)C(=O)Nc2ccc3c(C)cc(=O)oc3c2)cc1` [compound 5, Benzyl (6-(4-Ethylbenzamido)-1-((4-methyl-2-oxo-2H-chromen-7-yl)amino)-1-oxohexan-2-yl)carbamate], for which, in assay [1], the “fluorometric substrate cleavage (Kcat)” value is “the 4-ethyl substitution increased the Kcat for SIRT1 but only minimally”. Still for that read-out and setting: the entry for `Cc1cc(=O)oc2cc(NC(=O)[C@H](CCCCNC(=O)Cc3ccccc3)NC(=O)OCc3ccccc3)ccc12` [compound 7] is “(0.37 ± 0.02) × 10^−3 s^−1”. `O=C(CCCCCNC(=O)c1ccccc1F)Nc1ccccc1` [compound 12, 2-FBzAHA]: the “in vitro SIRT1 reaction monitored by 19F NMR” value in assay [3] is listed as “The enzymatic cleavage of 2F-BzAHA by SIRT1 was validated using an in vitro SIRT1 enzyme assay”.
